Experiments:
[1] = test system: A2780/T cells (PTX-resistant, ABCB1-overexpressing ovarian cancer cells); experiment: cells; assay type: cell-based, human; settings: Homo sapiens, A2780, 48 h, A2780/T, 48 h, SRB, drug alone (no nobiletin); read-out: IC50 ± SD
Description: Sulphorhodamine B (SRB) assays were used for cell density determination, based on sensitive measure of total cellular protein, which perform similarly compared with other proliferation assays such as MTT assay. Briefly, cells were seeded into flat bottomed 96-well plates at an initial density of 7.5×10^3 per well before treatment. […] After removing the medium, cells were fixed in 10% trichloroacetic acid for 1 h at 4° C. and then washed with water five times. 0.4% SRB dissolved in 1% v/v acetic acid was added and incubated […] for staining. The cells were quickly washed with 1% acetic acid and left to dry overnight. The protein bound SRB was solubilized by adding 200 μl 10 mM Tris buffer per well and was measured at wavelengths 490 nm using a plate reader (Spectra MAX 250; Molecular Devices, Sunnyvale, Calif.). The optical density of SRB in each well is directly proportional to the cell number.

[2] = rats, single administration 50 mg/kg by gavage; cited from earlier work
[3] = target: T1, recombinant human ABCB1 membranes (P-gp ATPase) (Homo sapiens, UniProt P08183); experiment: ABCB1 ATPase activity assay (PgpGlo); assay type: biochemical
T1 construct: purchased Promega
T1 sequence (P08183 whole entry): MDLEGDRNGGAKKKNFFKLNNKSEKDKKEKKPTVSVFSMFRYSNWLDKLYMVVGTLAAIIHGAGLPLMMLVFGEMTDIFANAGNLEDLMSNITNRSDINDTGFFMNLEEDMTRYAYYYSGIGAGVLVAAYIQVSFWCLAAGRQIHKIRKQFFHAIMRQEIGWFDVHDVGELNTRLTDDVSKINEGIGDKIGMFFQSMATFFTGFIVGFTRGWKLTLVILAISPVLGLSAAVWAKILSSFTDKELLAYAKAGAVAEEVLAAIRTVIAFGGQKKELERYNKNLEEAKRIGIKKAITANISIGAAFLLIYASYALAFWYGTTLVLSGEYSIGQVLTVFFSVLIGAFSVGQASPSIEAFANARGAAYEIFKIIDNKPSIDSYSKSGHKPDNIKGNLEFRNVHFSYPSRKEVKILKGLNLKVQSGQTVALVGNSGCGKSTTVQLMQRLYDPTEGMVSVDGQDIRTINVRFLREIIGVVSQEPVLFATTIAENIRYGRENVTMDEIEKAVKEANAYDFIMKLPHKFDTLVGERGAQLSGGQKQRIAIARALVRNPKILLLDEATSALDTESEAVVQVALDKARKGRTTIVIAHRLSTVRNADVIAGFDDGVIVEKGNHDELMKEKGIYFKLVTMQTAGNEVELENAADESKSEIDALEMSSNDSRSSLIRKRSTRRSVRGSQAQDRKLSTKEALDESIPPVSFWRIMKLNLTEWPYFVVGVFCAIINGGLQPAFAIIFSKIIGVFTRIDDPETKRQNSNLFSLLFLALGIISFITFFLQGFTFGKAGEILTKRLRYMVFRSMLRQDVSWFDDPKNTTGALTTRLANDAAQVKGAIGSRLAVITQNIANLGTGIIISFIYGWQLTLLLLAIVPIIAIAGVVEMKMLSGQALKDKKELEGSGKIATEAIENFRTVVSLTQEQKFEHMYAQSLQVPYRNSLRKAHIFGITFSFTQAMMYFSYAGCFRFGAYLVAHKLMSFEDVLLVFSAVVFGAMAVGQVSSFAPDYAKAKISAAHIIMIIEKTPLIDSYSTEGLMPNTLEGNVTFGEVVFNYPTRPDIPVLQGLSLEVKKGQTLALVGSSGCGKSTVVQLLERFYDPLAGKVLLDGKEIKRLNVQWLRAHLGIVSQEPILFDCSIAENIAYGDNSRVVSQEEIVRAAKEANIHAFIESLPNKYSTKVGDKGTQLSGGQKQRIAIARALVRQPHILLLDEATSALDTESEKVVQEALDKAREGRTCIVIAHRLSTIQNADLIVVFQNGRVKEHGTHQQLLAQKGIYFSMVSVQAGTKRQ
Description: Sodium orthovanadate (Na3VO4) was used as an ABCB1 ATPase inhibitor. […] Luminescence was initiated by ATP detection buffer. The plate (white opaque 96-well, corning, USA) was further incubated at room temperature for […] to develop luminescent signal, and was read with luminometer (infinite M200 PRO, TECAN, Switzerland).

A2780/T cells = experiment: Colony formation assay; assay type: cell-based, human; settings: 12 days
Text: The A2780/T cells were trypsinized and plated in fresh culture medium at a density of 600 cells/9.6 cm^2 plate. Subsequently, the cells were fixed with 70% ethanol and stained with crystal violet (0.5% in ethanol). The plates were rinsed with phosphate buffered saline (PBS), and the colony numbers were counted using the software of Quantity one-Colony counting.

Which results are given for `COc1ccc(-c2cc(=O)c3c(OC)c(OC)c(OC)c(OC)c3o2)cc1OC` [nobiletin]?
IC50 [1]: 31.6 µM; peak plasma level [2]: ~22.5 µM; EC50 [3]: 5.88 µM; IC50 [3]: 7.17 µM; maximal stimulation of ATPase activity relative to basal activity ([3]; human, 40 min): 3 fold; inhibition of colony formation, single agent (A2780/T cells; 9 μM nobiletin alone or 0.94 μM PTX alone): no inhibition; inhibition of colony formation, combination (A2780/T cells; different concentrations of nobiletin with 0.94 μM PTX): Complete inhibition
